From US9833497B2, “Human originated EGF domain proteins and use of the same” (CHENGDU SOURCEBIO LIMITED-LIABILITY COMPANY, priority 2013, dated 2017)

Key:
Type in all cases: cell-based
E. coli DH5α = experiment: Antibacterial activity: MIC and growth curve against E. coli DH5α in 96-well plate; settings: minimal inhibitory concentration against E. coli DH5α; 96-well plate, 5×10^5 CFU/mL, 37° C., judged after 8 h
Outline: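 MIC taken as lowest protein level with no bacterial growth, tracked by A600 every 30 min during 37 °C, 175 rpm culture. Two-fold protein series 50-12.5 μg/mL final, triplicate wells, against 5×10^5 CFU/mL of LB-washed mid-log cells.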

E. coli BL21 = experiment: MIC against Gram-negative bacteria: E. coli BL21
Outline: (§1)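 Bacteria grown in LB at 37° C with shaking to McFarland 0.5, pelleted and resuspended in fresh LB, then seeded at 5×10^5 CFU/mL per well. Purified recombinant human EGF domain proteins were two-fold serially diluted in triplicate and plates shaken at 37° C, 175 rpm. MIC is the lowest protein concentration with no bacterial growth.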

Pseudomonas aeruginosa = experiment: MIC against Gram-negative bacteria: Pseudomonas aeruginosa
Outline: as §1

Klebsiella pneumonia = experiment: MIC against Gram-negative bacteria: Klebsiella pneumonia
Outline: as §1

Enterobacter cloacae = experiment: MIC against Gram-negative bacteria: Enterobacter cloacae
Outline: as §1

Aeromonas hydrophila = experiment: MIC against Gram-negative bacteria: Aeromonas hydrophila
Outline: as §1

Citrobacter diversus = experiment: MIC against Gram-negative bacteria: Citrobacter diversus
Outline: as §1

Moraxella catarrhalis = experiment: MIC against Gram-negative bacteria: Moraxella catarrhalis
Outline: as §1

Proteus mirabilis = experiment: MIC against Gram-negative bacteria: Proteus mirabilis
Outline: as §1

Proteus vulgaris = experiment: MIC against Gram-negative bacteria: Proteus vulgaris
Outline: as §1

Serratia marcescens = experiment: MIC against Gram-negative bacteria: Serratia marcescens
Outline: as §1

[1] = E. coli BL21, 5×10^5 CFU/mL, 10 h cultivation at 37° C.
[2] = Pseudomonas aeruginosa, 5×10^5 CFU/mL, 10 h cultivation at 37° C.
[3] = Klebsiella pneumonia, 5×10^5 CFU/mL, 10 h cultivation at 37° C.
[4] = Enterobacter cloacae, 5×10^5 CFU/mL, 10 h cultivation at 37° C.
[5] = Aeromonas hydrophila, 5×10^5 CFU/mL, 10 h cultivation at 37° C.
[6] = Citrobacter diversus, 5×10^5 CFU/mL, 10 h cultivation at 37° C.
[7] = Moraxella catarrhalis, 5×10^5 CFU/mL, 10 h cultivation at 37° C.
[8] = Proteus mirabilis, 5×10^5 CFU/mL, 10 h cultivation at 37° C.
[9] = Proteus vulgaris, 5×10^5 CFU/mL, 10 h cultivation at 37° C.
[10] = Serratia marcescens, 5×10^5 CFU/mL, 10 h cultivation at 37° C.
[11] = 96-well plate, 5×10^5 CFU/mL, 37° C., 10 h
[12] = E. coli BL21, 10 h cultivation at 37° C., 5×10^5 CFU/mL
[13] = P. aeruginosa, 10 h cultivation at 37° C., 5×10^5 CFU/mL
[14] = K. pneumonia, 10 h cultivation at 37° C., 5×10^5 CFU/mL
[15] = E. cloacae, 10 h cultivation at 37° C., 5×10^5 CFU/mL
[16] = A. hydrophila, 10 h cultivation at 37° C., 5×10^5 CFU/mL
[17] = C. diversus, 10 h cultivation at 37° C., 5×10^5 CFU/mL
[18] = M. catarrhalis, 10 h cultivation at 37° C., 5×10^5 CFU/mL
[19] = P. mirabilis, 10 h cultivation at 37° C., 5×10^5 CFU/mL
[20] = P. vulgaris, 10 h cultivation at 37° C., 5×10^5 CFU/mL
[21] = S. marcescens, 10 h cultivation at 37° C., 5×10^5 CFU/mL

“PRT1400 (VCSVDCGTHGVCIGGACRCEEGWTGAACD; listed as Homo sapiens)” was tested, and the MIC (E. coli DH5α) was 50 µg/mL, the “MIC against E. coli BL21” value (E. coli BL21; [1]) was 12.5 µg/mL and the “MIC against P. aeruginosa” value (Pseudomonas aeruginosa; [2]) was 50 µg/mL. The “MIC against K. pneumonia” value (Klebsiella pneumonia; [3]) was 12.5 µg/mL, the “MIC against E. cloacae” value (Enterobacter cloacae; [4]) was 25 µg/mL and the “MIC against A. hydrophila” value (Aeromonas hydrophila; [5]) was 50 µg/mL. For the same substance, the “MIC against C. diversus” value (Citrobacter diversus; [6]) was 12.5 µg/mL, the “MIC against M. catarrhalis” value (Moraxella catarrhalis; [7]) was 50 µg/mL and the “MIC against P. mirabilis” value (Proteus mirabilis; [8]) was 12.5 µg/mL. The “MIC against P. vulgaris” value (Proteus vulgaris; [9]) was 12.5 µg/mL and the “MIC against S. marcescens” value (Serratia marcescens; [10]) was 25 µg/mL.
“PRT1432 (PARTCHSPAHSPCHIHAHCLFERNGAVSCQCNVGWAGNGNVCG; listed as Homo sapiens)” was tested, and the MIC (E. coli DH5α) was 25 µg/mL, the “MIC against E. coli BL21” value (E. coli BL21; [1]) was 12.5 µg/mL and the “MIC against P. aeruginosa” value (Pseudomonas aeruginosa; [2]) was 50 µg/mL. For the same substance, the “MIC against K. pneumonia” value (Klebsiella pneumonia; [3]) was 12.5 µg/mL, the “MIC against E. cloacae” value (Enterobacter cloacae; [4]) was 50 µg/mL and the “MIC against A. hydrophila” value (Aeromonas hydrophila; [5]) was 25 µg/mL. For the same substance, the “MIC against C. diversus” value (Citrobacter diversus; [6]) was 12.5 µg/mL, the “MIC against M. catarrhalis” value (Moraxella catarrhalis; [7]) was 25 µg/mL and the “MIC against P. mirabilis” value (Proteus mirabilis; [8]) was 50 µg/mL. For the same substance, the “MIC against P. vulgaris” value (Proteus vulgaris; [9]) was 25 µg/mL and the “MIC against S. marcescens” value (Serratia marcescens; [10]) was 12.5 µg/mL.
With “PRT629 (CPCPGQSACTTIPESREVVCTHCPPGQRGRRCEVCDDGFFGDPLGLFGHPQPCHQ; listed as Homo sapiens)” the MIC (E. coli DH5α) was 12.5 µg/mL, the “MIC E. coli BL21” value (E. coli BL21; [11]) was 25 µg/mL and the “MIC P. aeruginosa” value (Pseudomonas aeruginosa; [11]) was 12.5 µg/mL. For the same substance, the “MIC K. pneumonia” value (Klebsiella pneumonia; [11]) was 25 µg/mL, the “MIC E. cloacae” value (Enterobacter cloacae; [11]) was 12.5 µg/mL and the “MIC A. hydrophila” value (Aeromonas hydrophila; [11]) was 12.5 µg/mL. The “MIC C. diversus” value (Citrobacter diversus; [11]) was 12.5 µg/mL, the “MIC M. catarrhalis” value (Moraxella catarrhalis; [11]) was 12.5 µg/mL and the “MIC P. mirabilis” value (Proteus mirabilis; [11]) was 12.5 µg/mL. For the same substance, the “MIC P. vulgaris” value (Proteus vulgaris; [11]) was 50 µg/mL and the “MIC S. marcescens” value (Serratia marcescens; [11]) was 12.5 µg/mL.
In the case of “PRT165 (DVRACSSAPCANNGTCVSLDDGLYECSCAPGYSGKDCQ; listed as Homo sapiens)”, the MIC (E. coli DH5α) is reported as 12.5 µg/mL, the “MIC (μg/mL) E. coli BL21” value (E. coli BL21; [12]) is reported as 12.5 µg/mL and the “MIC (μg/mL) P. aeruginosa” value (Pseudomonas aeruginosa; [13]) is reported as 25 µg/mL. The “MIC (μg/mL) K. pneumonia” value (Klebsiella pneumonia; [14]) was 12.5 µg/mL, the “MIC (μg/mL) E. cloacae” value (Enterobacter cloacae; [15]) was 25 µg/mL and the “MIC (μg/mL) A. hydrophila” value (Aeromonas hydrophila; [16]) was 25 µg/mL. The “MIC (μg/mL) C. diversus” value (Citrobacter diversus; [17]) was 25 µg/mL, the “MIC (μg/mL) M. catarrhalis” value (Moraxella catarrhalis; [18]) was 25 µg/mL and the “MIC (μg/mL) P. mirabilis” value (Proteus mirabilis; [19]) was 12.5 µg/mL. For the same substance, the “MIC (μg/mL) P. vulgaris” value (Proteus vulgaris; [20]) was 25 µg/mL and the “MIC (μg/mL) S. marcescens” value (Serratia marcescens; [21]) was 12.5 µg/mL.
In the case of “PRT855 (DVDECATGRASCPRFRQCVNTFGSYICKCHKGFDLMYIGGKYQCH; listed as Homo sapiens)”, the MIC (E. coli DH5α) is reported as 50 µg/mL, the “MIC (μg/mL) E. coli BL21” value (E. coli BL21; [12]) is reported as 12.5 µg/mL and the “MIC (μg/mL) P. aeruginosa” value (Pseudomonas aeruginosa; [13]) is reported as 50 µg/mL. The “MIC (μg/mL) K. pneumonia” value (Klebsiella pneumonia; [14]) was 25 µg/mL, the “MIC (μg/mL) E. cloacae” value (Enterobacter cloacae; [15]) was 12.5 µg/mL and the “MIC (μg/mL) A. hydrophila” value (Aeromonas hydrophila; [16]) was 50 µg/mL. For the same substance, the “MIC (μg/mL) C. diversus” value (Citrobacter diversus; [17]) was 12.5 µg/mL, the “MIC (μg/mL) M. catarrhalis” value (Moraxella catarrhalis; [18]) was 12.5 µg/mL and the “MIC (μg/mL) P. mirabilis” value (Proteus mirabilis; [19]) was 12.5 µg/mL. The “MIC (μg/mL) P. vulgaris” value (Proteus vulgaris; [20]) was 12.5 µg/mL and the “MIC (μg/mL) S. marcescens” value (Serratia marcescens; [21]) was 12.5 µg/mL.
In the case of “PRT1000 (ELGGCISAPCAHGGTCYPQPSGYNCTCPTGYTGPTCS; listed as Homo sapiens)”, the MIC (E. coli DH5α) is reported as 50 µg/mL, the MIC (E. coli BL21; E. coli BL21, 10 h cultivation at 37° C.) is reported as 12.5 µg/mL and the MIC (Pseudomonas aeruginosa; P. aeruginosa, 10 h cultivation at 37° C.) is reported as 50 µg/mL. It also gave an MIC (Klebsiella pneumonia; K. pneumonia, 10 h cultivation at 37° C.) of 25 µg/mL, an MIC (Enterobacter cloacae; E. cloacae, 10 h cultivation at 37° C.) of 12.5 µg/mL and an MIC (Aeromonas hydrophila; A. hydrophila, 10 h cultivation at 37° C.) of 25 µg/mL. The MIC (Citrobacter diversus; C. diversus, 10 h cultivation at 37° C.) was 50 µg/mL, the MIC (Moraxella catarrhalis; M. catarrhalis, 10 h cultivation at 37° C.) was 25 µg/mL and the MIC (Proteus mirabilis; P. mirabilis, 10 h cultivation at 37° C.) was 12.5 µg/mL. For the same substance, the MIC (Proteus vulgaris; P. vulgaris, 10 h cultivation at 37° C.) was 25 µg/mL and the MIC (Serratia marcescens; S. marcescens, 10 h cultivation at 37° C.) was 50 µg/mL.
With “PRT539 (CDCSGNSDPNLIFEDCDEVTGQCRNCLRNTTGFKCERCAPGYYGDARIAKNCAV; listed as Homo sapiens)” the MIC (E. coli DH5α) was 12.5 µg/mL, the “MIC against E. coli BL21” value (E. coli BL21; [11]) was 50 µg/mL and the “MIC against P. aeruginosa” value (Pseudomonas aeruginosa; [11]) was 12.5 µg/mL. For the same substance, the “MIC against K. pneumonia” value (Klebsiella pneumonia; [11]) was 25 µg/mL, the “MIC against E. cloacae” value (Enterobacter cloacae; [11]) was 50 µg/mL and the “MIC against A. hydrophila” value (Aeromonas hydrophila; [11]) was 25 µg/mL. For the same substance, the “MIC against C. diversus” value (Citrobacter diversus; [11]) was 12.5 µg/mL, the “MIC against M. catarrhalis” value (Moraxella catarrhalis; [11]) was 25 µg/mL and the “MIC against P. mirabilis” value (Proteus mirabilis; [11]) was 50 µg/mL. The “MIC against P. vulgaris” value (Proteus vulgaris; [11]) was 12.5 µg/mL and the “MIC against S. marcescens” value (Serratia marcescens; [11]) was 50 µg/mL.
